In article PMC11181336, “Discovery of ITI-333, a Novel Orally Bioavailable Molecule Targeting Multiple Receptors for the Treatment of Pain and Other Disorders” (Journal of Medicinal Chemistry, 2024):
Like-named read-outs stand apart in the source and are kept apart here.

How the values were obtained:
[1] = target: human recombinant dopamine D1 receptor (Homo sapiens, UniProt P21728); assay: Dopamine D1 receptor binding, [3H]SCH 23390 displacement; conditions: for inhibition at 0.1 µM: read-out: D1 % inhibition
human recombinant dopamine D1 receptor, sequence (P21728 whole entry): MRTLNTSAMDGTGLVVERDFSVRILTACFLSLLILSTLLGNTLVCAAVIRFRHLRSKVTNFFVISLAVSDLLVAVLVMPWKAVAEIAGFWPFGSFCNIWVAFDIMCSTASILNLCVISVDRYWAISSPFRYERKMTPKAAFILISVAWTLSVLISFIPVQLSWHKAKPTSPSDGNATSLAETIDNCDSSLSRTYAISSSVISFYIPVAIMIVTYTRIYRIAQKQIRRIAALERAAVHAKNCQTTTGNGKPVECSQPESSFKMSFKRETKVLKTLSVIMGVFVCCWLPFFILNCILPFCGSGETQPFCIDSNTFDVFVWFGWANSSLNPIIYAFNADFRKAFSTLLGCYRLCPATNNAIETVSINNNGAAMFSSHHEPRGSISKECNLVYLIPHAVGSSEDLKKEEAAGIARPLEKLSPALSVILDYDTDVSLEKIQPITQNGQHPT

[2] = system: male C57Bl/6 mice; assay: Mouse formalin paw assay for inflammatory pain; assay type: in vivo; conditions: SC administration 30 min prior; morphine 5 mg/kg; compound 5 0.3, 1 or 3 mg/kg
[3] = target: human recombinant dopamine D2 short receptor (Homo sapiens, UniProt P14416); assay: Dopamine D2 receptor binding, [3H]7-OH-DPAT displacement; conditions: inhibition at 100 nM; NI = no inhibition; read-out: D2 % inhibition
human recombinant dopamine D2 short receptor, sequence (P14416 1-414 isoform P14416-2): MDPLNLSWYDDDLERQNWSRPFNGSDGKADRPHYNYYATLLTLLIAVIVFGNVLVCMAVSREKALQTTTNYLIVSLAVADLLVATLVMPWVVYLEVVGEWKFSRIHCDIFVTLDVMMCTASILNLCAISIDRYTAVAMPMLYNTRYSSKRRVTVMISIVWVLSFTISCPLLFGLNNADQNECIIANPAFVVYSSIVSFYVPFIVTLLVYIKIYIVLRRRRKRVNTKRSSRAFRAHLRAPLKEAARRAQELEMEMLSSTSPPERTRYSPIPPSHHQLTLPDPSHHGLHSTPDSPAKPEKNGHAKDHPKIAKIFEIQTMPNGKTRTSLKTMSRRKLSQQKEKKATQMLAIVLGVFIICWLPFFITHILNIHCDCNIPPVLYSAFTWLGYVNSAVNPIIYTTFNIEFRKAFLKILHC

[4] = target: T1, human recombinant 5-HT transporter (SERT) (Homo sapiens, UniProt P31645); assay: biochemical; assay type: binding; conditions: read-out: SERT % inhibition
T1 construct: host or cells: CHO-S / SERT (h), cell membrane homogenates
T1 sequence (P31645 whole entry): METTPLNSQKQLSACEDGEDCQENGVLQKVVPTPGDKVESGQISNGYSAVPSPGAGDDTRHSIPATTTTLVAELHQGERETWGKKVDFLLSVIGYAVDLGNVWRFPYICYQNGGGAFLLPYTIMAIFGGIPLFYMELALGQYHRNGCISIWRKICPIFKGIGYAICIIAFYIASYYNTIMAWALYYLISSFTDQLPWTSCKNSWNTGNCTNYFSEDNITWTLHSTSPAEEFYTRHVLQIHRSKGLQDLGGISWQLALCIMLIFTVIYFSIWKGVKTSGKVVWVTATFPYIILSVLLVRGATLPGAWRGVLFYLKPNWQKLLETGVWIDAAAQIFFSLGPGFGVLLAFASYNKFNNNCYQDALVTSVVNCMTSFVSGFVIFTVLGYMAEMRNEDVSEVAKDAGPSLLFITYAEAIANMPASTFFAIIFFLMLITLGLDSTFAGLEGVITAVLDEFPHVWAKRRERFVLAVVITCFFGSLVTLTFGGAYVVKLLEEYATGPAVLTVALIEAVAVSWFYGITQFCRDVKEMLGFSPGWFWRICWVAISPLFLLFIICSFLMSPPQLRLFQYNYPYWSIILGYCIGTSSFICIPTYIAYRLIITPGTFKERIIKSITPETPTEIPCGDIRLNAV

[5] = target: T2, human full-length recombinant serotonin 5-HT2A receptors (Homo sapiens, UniProt P28223); assay: biochemical; assay type: binding; conditions: read-out: 5-HT2A % inhibition
T2 construct: human full-length recombinant serotonin 5-HT2A receptors expressed in HEK-293E cells
T2 sequence (P28223 whole entry): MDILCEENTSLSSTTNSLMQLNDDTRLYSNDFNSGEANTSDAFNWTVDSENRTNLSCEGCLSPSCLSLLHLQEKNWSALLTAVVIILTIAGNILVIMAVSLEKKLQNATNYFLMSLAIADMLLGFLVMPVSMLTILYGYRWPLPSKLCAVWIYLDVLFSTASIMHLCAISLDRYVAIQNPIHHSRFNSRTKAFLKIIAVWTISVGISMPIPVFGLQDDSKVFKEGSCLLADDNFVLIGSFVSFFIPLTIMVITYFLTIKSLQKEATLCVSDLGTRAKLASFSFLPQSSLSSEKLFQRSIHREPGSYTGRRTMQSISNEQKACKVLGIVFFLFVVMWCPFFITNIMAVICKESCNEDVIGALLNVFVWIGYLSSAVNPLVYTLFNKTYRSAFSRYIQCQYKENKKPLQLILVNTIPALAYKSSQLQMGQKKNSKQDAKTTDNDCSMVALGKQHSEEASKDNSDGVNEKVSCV

[6] = system: male CD-1 mice; conditions: mouse, in vivo
[7] = inhibition at 100 nM, NI = no inhibition

| SMILES | D1(Ki or (% Inhibition)): % inhibition [1] | inhibition at 0.1 µM [1] | licking response to formalin injection [2] | inhibition at 0.1 µM [3] | inhibition at 0.1 µM [4] | inhibition at 0.1 µM [5] | inhibition at 0.1 µM [1, 7] | inhibition at 0.2 µM [4] | analgesic effect after pretreatment with naloxone [6] | latency to tail flick compared to the vehicle [6] |
| --- | --- | --- | --- | --- | --- | --- | --- | --- | --- | --- |
| O=C1CN2c3c(cccc3[C@@H]3CN(CCCOc4ccc(F)cc4)CC[C@@H]32)N1 [compound 5, (6bR,10aS)-8-(3-(4-Fluorophenoxy)propyl)-6b,7,8,9,10,10a-hexahydro-1H-pyrido[3′,4′:4,5]pyrrolo[1,2,3-de]quinoxalin-2(3H)-one] | 50 (44%) | 44% | dose-dependently reduced | – | – | – | – | – | – | – |
| CC1C(=O)Nc2cccc3c2N1[C@H]1CCN(CCCOc2ccc(F)cc2)C[C@@H]31 (stereo partly drawn) [compound 51, (6bR,10aS)-8-(3-(4-Fluorophenoxy)propyl)-1-methyl-6b,7,8,9,10,10a-hexahydro-1H-pyrido[3′,4′:4,5]-pyrrolo[1,2,3-de]quinoxalin-2(3H)-one] | – | – | – | 49% | < 0% | 88% | 26% | – | – | – |
| O=C1CCN2c3c(cccc3[C@@H]3CN(CCCOc4ccc(F)cc4)CC[C@@H]32)N1 [compound 53, (8aS,12aR)-11-(3-(4-Fluorophenoxy)propyl)-6,7,8a,9,10,11,12,12a-octahydro-[1,4]diazepino[3,2,1-hi]pyrido[4,3-b]indol-5(4H)-one] | – | – | – | 24% | – | 93% | 14% | 29% | – | – |
| CN1CC[C@]23c4c5ccc(O)c4O[C@H]2[C@@H](O)C=C[C@H]3[C@H]1C5 [morphine] | – | – | significantly suppressed | – | – | – | – | – | attenuated | significantly increased |
